Bounds are passed on as bounds.

One experiment has as its target FluB polymerase. Format: binding, human influenza B/Memphis/13/03.
Experiment [1] has as its target bat FluA polymerase-vRNA promoter complex. Format: binding.
Another experiment has as its system bat FluA polymerase. In kind it is binding.

“Pol II CTD peptide, four heptad repeats Tyr-Ser-Pro-Thr-SerP-Pro-Ser (28 amino acids), FAM-labelled at the N-terminal end for binding assays (Covalab) [28-mer SeP5 peptide]”: the equilibrium dissociation constant (Kd) turned out to be 2900 nM at FluB polymerase and 900 nM in experiment [1]. For the same substance, in experiment [1], the “higher affinity for Ser5 phosphorylated compared to non-phosphorylated CTD repeats” value is reported as greater than 10 fold. Also, the “binding in the absence of the vRNA promotor” value in the experiment on bat FluA polymerase is “independent of vRNA promoter binding”.

The values above are taken from patent publication US20190252037A1 (priority 2016, published 2019).
